In PubChem BioAssay (NCI):
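At the GI50, growth is halved. TGI denotes the concentration required for complete inhibition of growth.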

Tests used:
Assay in all cases: DTP human tumour cell line panel, 384-well format
RXF 393 renal = system: RXF 393 renal
MDA-MB-231 breast = system: MDA-MB-231 breast
HOP-62 NSCLC = system: HOP-62 NSCLC
ACHN renal = system: ACHN renal
MCF7 breast = system: MCF7 breast
SF-295 CNS = system: SF-295 CNS
SK-MEL-28 melanoma = system: SK-MEL-28 melanoma
SF-268 CNS = system: SF-268 CNS
A498 renal = system: A498 renal
M14 melanoma = system: M14 melanoma
KM12 colon = system: KM12 colon
EKVX NSCLC = system: EKVX NSCLC
UACC-62 melanoma = system: UACC-62 melanoma
RPMI-8226 leukemia = system: RPMI-8226 leukemia
PC-3 prostate = system: PC-3 prostate
A549 NSCLC = system: A549 NSCLC
NCI-H23 lung = system: NCI-H23 lung
HCC-2998 colon = system: HCC-2998 colon
OVCAR-8 ovarian = system: OVCAR-8 ovarian
DU-145 prostate = system: DU-145 prostate
CAKI-1 renal = system: CAKI-1 renal
HOP-92 NSCLC = system: HOP-92 NSCLC
UACC-257 melanoma = system: UACC-257 melanoma
OVCAR-5 ovarian = system: OVCAR-5 ovarian
IGROV1 ovarian = system: IGROV1 ovarian
SNB-19 CNS = system: SNB-19 CNS
NCI/ADR-RES ovarian = system: NCI/ADR-RES ovarian
HL-60(TB) leukemia = system: HL-60(TB) leukemia
MDA-MB-435 melanoma = system: MDA-MB-435 melanoma
T-47D breast = system: T-47D breast
SW-620 colon = system: SW-620 colon
HT29 colon = system: HT29 colon
NCI-H522 lung = system: NCI-H522 lung
BT-549 breast = system: BT-549 breast
HCT-15 colon = system: HCT-15 colon
SK-MEL-2 melanoma = system: SK-MEL-2 melanoma
SK-MEL-5 melanoma = system: SK-MEL-5 melanoma
NCI-H460 NSCLC = system: NCI-H460 NSCLC
COLO 205 colon = system: COLO 205 colon
OVCAR-4 ovarian = system: OVCAR-4 ovarian
MDA-MB-468 breast = system: MDA-MB-468 breast
SN12C renal = system: SN12C renal
U251 glioblastoma = system: U251 glioblastoma
HS 578T breast = system: HS 578T breast
MALME-3M melanoma = system: MALME-3M melanoma
786-0 renal = system: 786-0 renal
SR leukemia = system: SR leukemia
SNB-75 CNS = system: SNB-75 CNS
NCI-H226 lung = system: NCI-H226 lung
MOLT-4 leukemia = system: MOLT-4 leukemia
SF-539 CNS = system: SF-539 CNS
SK-OV-3 ovarian = system: SK-OV-3 ovarian
NCI-H322M lung = system: NCI-H322M lung
OVCAR-3 ovarian = system: OVCAR-3 ovarian
CCRF-CEM leukemia = system: CCRF-CEM leukemia

CC1=C(CO)C2=C(C)C3(CC3)[C@@](C)(O)C(=O)C2=C1
GI50 (RXF 393 renal): 16.7 nM
TGI (RXF 393 renal): 35.8 nM
GI50 (MDA-MB-231 breast): 203 nM
TGI (MDA-MB-231 breast): 473 nM
GI50 (HOP-62 NSCLC): 159 nM
TGI (HOP-62 NSCLC): 316 nM
GI50 (ACHN renal): 214 nM
TGI (ACHN renal): 404 nM
GI50 (MCF7 breast): 184 nM
TGI (MCF7 breast): 496 nM
GI50 (SF-295 CNS): 185 nM
TGI (SF-295 CNS): 374 nM
GI50 (SK-MEL-28 melanoma): 251 nM
TGI (SK-MEL-28 melanoma): 624 nM
GI50 (SF-268 CNS): 143 nM
TGI (SF-268 CNS): 318 nM
GI50 (A498 renal): 50.8 nM
TGI (A498 renal): 367 nM
GI50 (M14 melanoma): 234 nM
TGI (M14 melanoma): 576 nM
GI50 (KM12 colon): 1400 nM
TGI (KM12 colon): 3360 nM
GI50 (EKVX NSCLC): 203 nM
TGI (EKVX NSCLC): 452 nM
GI50 (UACC-62 melanoma): 394 nM
TGI (UACC-62 melanoma): 1520 nM
GI50 (RPMI-8226 leukemia): 5960 nM
TGI (RPMI-8226 leukemia): 18000 nM
GI50 (PC-3 prostate): 186 nM
TGI (PC-3 prostate): 404 nM
GI50 (A549 NSCLC): 96.2 nM
TGI (A549 NSCLC): 527 nM
GI50 (NCI-H23 lung): 53.9 nM
TGI (NCI-H23 lung): 181 nM
GI50 (HCC-2998 colon): 110 nM
TGI (HCC-2998 colon): 240 nM
GI50 (OVCAR-8 ovarian): 219 nM
TGI (OVCAR-8 ovarian): 527 nM
GI50 (DU-145 prostate): 46.8 nM
TGI (DU-145 prostate): 305 nM
GI50 (CAKI-1 renal): 178 nM
TGI (CAKI-1 renal): 372 nM
GI50 (HOP-92 NSCLC): 124 nM
TGI (HOP-92 NSCLC): 445 nM
GI50 (UACC-257 melanoma): 216 nM
TGI (UACC-257 melanoma): 465 nM
GI50 (OVCAR-5 ovarian): 213 nM
TGI (OVCAR-5 ovarian): 519 nM
GI50 (IGROV1 ovarian): 163 nM
TGI (IGROV1 ovarian): 447 nM
GI50 (SNB-19 CNS): 317 nM
TGI (SNB-19 CNS): 1240 nM
GI50 (NCI/ADR-RES ovarian): 222 nM
TGI (NCI/ADR-RES ovarian): 428 nM
GI50 (HL-60(TB) leukemia): 179 nM
TGI (HL-60(TB) leukemia): 334 nM
GI50 (MDA-MB-435 melanoma): 1760 nM
TGI (MDA-MB-435 melanoma): 3480 nM
GI50 (T-47D breast): 159 nM
TGI (T-47D breast): 423 nM
GI50 (SW-620 colon): 1160 nM
TGI (SW-620 colon): 3150 nM
GI50 (HT29 colon): 184 nM
TGI (HT29 colon): 395 nM
GI50 (NCI-H522 lung): 116 nM
TGI (NCI-H522 lung): 244 nM
GI50 (BT-549 breast): 132 nM
TGI (BT-549 breast): 269 nM
GI50 (HCT-15 colon): 188 nM
TGI (HCT-15 colon): 365 nM
GI50 (SK-MEL-2 melanoma): 237 nM
TGI (SK-MEL-2 melanoma): 392 nM
GI50 (SK-MEL-5 melanoma): 166 nM
TGI (SK-MEL-5 melanoma): 376 nM
GI50 (NCI-H460 NSCLC): 43.7 nM
TGI (NCI-H460 NSCLC): 174 nM
GI50 (COLO 205 colon): 132 nM
TGI (COLO 205 colon): 272 nM
GI50 (OVCAR-4 ovarian): 201 nM
TGI (OVCAR-4 ovarian): 392 nM
GI50 (MDA-MB-468 breast): 45.1 nM
TGI (MDA-MB-468 breast): 125 nM
GI50 (SN12C renal): 231 nM
TGI (SN12C renal): 761 nM
GI50 (U251 glioblastoma): 203 nM
TGI (U251 glioblastoma): 410 nM
GI50 (HS 578T breast): 325 nM
TGI (HS 578T breast): 1070 nM
GI50 (MALME-3M melanoma): 152 nM
TGI (MALME-3M melanoma): 296 nM
GI50 (786-0 renal): 180 nM
TGI (786-0 renal): 381 nM
GI50 (SR leukemia): 171 nM
TGI (SR leukemia): 361 nM
GI50 (SNB-75 CNS): 119 nM
TGI (SNB-75 CNS): 250 nM
GI50 (NCI-H226 lung): 297 nM
TGI (NCI-H226 lung): 793 nM
GI50 (MOLT-4 leukemia): 147 nM
TGI (MOLT-4 leukemia): 336 nM
GI50 (SF-539 CNS): 173 nM
TGI (SF-539 CNS): 313 nM
GI50 (SK-OV-3 ovarian): 179 nM
TGI (SK-OV-3 ovarian): 390 nM
GI50 (NCI-H322M lung): 182 nM
TGI (NCI-H322M lung): 369 nM
GI50 (OVCAR-3 ovarian): 152 nM
TGI (OVCAR-3 ovarian): 312 nM
GI50 (CCRF-CEM leukemia): 1490 nM
TGI (CCRF-CEM leukemia): 2830 nM
